Measured values reported in patent US20230172203A1, “PLANT METABOLISM PROMOTING COMPOSITIONS AND METHODS OF USE” (Panoptic Ag Solutions LLC, priority 2021, published 2023).

Tests used:
[1] = tested on: Wheat (Triticum aestivum); experiment: 2022 Replicated South Dakota Spring Wheat Field Trial; assay type: in vivo
From the text: Wheat seed (Triticum aestivum) was planted at a rate of 90 lbs/acre. The treated plot size was 5 ft×40 ft and this was replicated 4 times. A 20% L-theanine solution was applied at 8 fl. oz./acre to the foliage of the wheat approximately 40 days after emergence. The trial was fertilized and maintained under grower standard practices.

tea plants = details: exogenous application; background statement; cited from earlier work
Corn seed = experiment: 2020 Greenhouse Corn Seed Treatment Trial; assay type: in vivo
Method: The base formulation used in greenhouse trials was an aqueous solution of L-theanine (20% by weight). The base formulation was further diluted with water as detailed for each trial. Corn seed (n=9/treatment) was treated with an aqueous solution of L-theanine at a rate of 1.0 fl. oz. per hundredweight of corn seed. The seeds were planted in commercial potting soil in 1-gallon pots. The plants were grown for 21 days before they were harvested.

Soybean (Glycine max) = experiment: 2021 Replicated Nebraska Soybean Field Trial; assay type: in vivo
From the text: Soybean seeds (Glycine max) were planted at a rate of 150,000 seeds per acre. The treated plot size was 5 ft×40 ft and this was replicated 4 times. A 20% aqueous L-theanine solution was applied to the foliage at 8 fl. oz./acre at the R2 (full flowering) growth stage. The trial was fertilized and maintained under grower standard practices.

Almond trees = experiment: 2021 Replicated California Almond Trial; assay type: in vivo
Method: Almond trees (n=6) were treated with a 20% aqueous solution of L-theanine at 1 pint per acre at pink bud and full bloom. Additional applications at 0.5 pint per acre soil were applied at petal fall, petal fall +3 weeks, and petal fall +6 weeks for a total of applications. The trial was maintained at grower standard fertilizer and pest management throughout the course of the trial.

Corn plants = experiment: 2021 Greenhouse Corn Trial (drench, two rates); assay type: in vivo; details: for Plant Biomass / Root Length: drench 50 mL per pot, harvested 21 days later
Method: The base formulation used in greenhouse trials was an aqueous solution of L-theanine (20% by weight). The base formulation was further diluted with water as detailed for each trial. Corn seed (n=14/treatment) was planted in commercial potting soil in 3-gallon pots. Approximately 14 days after emergence, an aqueous solution of L-theanine was applied at a rate of 0.2 mL (Treatment 2) and 0.4 mL (Treatment 3) per 1000 mL water. The resulting solutions were drenched at a rate of 50 mL per pot. The plants were grown for an additional 21 days then harvested.

[2] = tested on: Whale variety spinach plant seedlings; experiment: 2021 Greenhouse Spinach Trial; assay type: in vivo
From the text: The base formulation used in greenhouse trials was an aqueous solution of L-theanine (20% by weight). The base formulation was further diluted with water as detailed for each trial. Whale variety spinach plant seedlings (n=6/treatment) were planted in commercial potting soil and then were transplanted to 3-gallon pots. L-theanine treatment was applied at the equivalent of 1 pint in 100 gallons of water (125 ppm) and sprayed till runoff. Two treatment applications were made to the plants approximately 14 days apart.

Onions = experiment: 2021 Pennsylvania Onion Replicated Field Trial; assay type: in vivo
Method: Onions were maintained under grower standard practices. Four replications were performed per treatment. In this trial, applications of L-theanine were performed every 14 days for a total of 4 applications.

Mustard plants = experiment: 2021 Greenhouse Mustard Trial (soil application); assay type: in vivo
Method: The base formulation used in greenhouse trials was an aqueous solution of L-theanine (20% by weight). The base formulation was further diluted with water as detailed for each trial. Mustard seeds (n=28/treatment) were planted in commercial potting soil in 1-gallon pots. Approximately 14 days after seedling emergence, an aqueous L-theanine solution was mixed into water at a rate of 0.2 mL per 1000 mL water. The resulting solution was applied to the soil of the pots at a rate of 50 mL per plant. Plants were grown for an additional 14 days then harvested.

Soybean plants = experiment: 2021 Greenhouse Soybean Trial (foliar application); assay type: in vivo
Method: The base formulation used in greenhouse trials was an aqueous solution of L-theanine (20% by weight). The base formulation was further diluted with water as detailed for each trial. Soybean seeds (n=12/treatment) were planted in commercial potting soil in 1 gallon pots. […] The plants were grown for another 14 days then harvested.

[3] = over the untreated check, seed treatment
[4] = seed treatment 1.0 fl. oz. per hundredweight of seed, harvested after 21 days
[5] = Treatment 2 (0.2 mL per 1000 mL), above the untreated check
[6] = Treatment 2: 8 fl. oz./acre (0.2 mL per 1000 mL water)
[7] = Treatment 3 (0.4 mL per 1000 mL), above the untreated check
[8] = Treatment 3: 16 fl. oz./acre (0.4 mL per 1000 mL water)
[9] = foliar spray 125 ppm till runoff, two applications ~14 days apart
[10] = vs untreated check, 125 ppm foliar, two applications
[11] = vs untreated check, 4 applications
[12] = 0.2 mL per 1000 mL water, 50 mL per plant, harvested 14 days later
[13] = above the untreated check, foliar 125 ppm
[14] = foliar, 8 fl. oz./50 gallons of water (125 ppm) till runoff, harvested 14 days later

In the case of `CCNC(=O)CC[C@H](N)C(=O)O` [L-theanine], the Yield ([1]; 20% solution, foliar, 8 fl. oz./acre ~40 days after emergence) is reported as 53.9 a Bushels/Acre, the increase in yield ([1]; over the untreated control) is reported as 5.3 bushels/acre and the “increase in yield, percent” value ([1]; over the untreated control) is reported as 10.9%. For the same compound, the “quality and yield of tea plants (in words)” value (tea plants) was “can improve the quality and yield of tea plants by increasing the number of usable leaves”, the increase in biomass (Corn seed; [3]) was 1.3 g and the “increase in biomass, percent” value (Corn seed; [3]) was 4.4%. For the same compound, the “increase in root length” value (Corn seed; [3]) was 69.1 cm, the “increase in root length, percent” value (Corn seed; [3]) was 7.0% and the “increase in root tips” value (Corn seed; [3]) was 883.8. The “increase in root tips, percent” value (Corn seed; [3]) was 18.5%, the “Plant Biomass” value (Corn seed; [4]) was 29.88 a g and the “Root Length” value (Corn seed; [4]) was 1049.08 a cm. For the same compound, the “Root Tips (#)” value (Corn seed; [4]) was 5656.2 a #, the Yield (Soybean (Glycine max); 20% aqueous solution, foliar, 8 fl. oz./acre at R2 (full flowering)) was 84.6 a Bushels/Acre and the increase in yield (Soybean (Glycine max); over the untreated control) was 6.0 bushels per acre. For the same compound, the “increase in yield, percent” value (Soybean (Glycine max); over the untreated control) was 7.6%, the Yield (Almond trees; 20% aqueous solution, 1 pint per acre at pink bud and full bloom, 0.5 pint per acre soil at petal fall, +3 weeks, +6 weeks) was 152.2 a lbs/tree and the “increase in almond yield (average)” value (Almond trees; vs untreated check) was 15.3 lbs per tree. For the same compound, the “increase in almond yield, percent” value (Almond trees; vs untreated check) was 11.2%, the change in biomass (Corn plants; [5]) was 9.0 grams and the “change in biomass, percent” value (Corn plants; [5]) was 13.9%. The “change in root length” value (Corn plants; [5]) was −106.8, the “change in root length, percent” value (Corn plants; [5]) was −6.0% and the “Plant Biomass” value (Corn plants; [6]) was 74.0 a g. For the same compound, the “Root Length” value (Corn plants; [6]) was 1683.8 a cm, the change in biomass (Corn plants; [7]) was 9.1 grams and the “change in biomass, percent” value (Corn plants; [7]) was 14.1%. For the same compound, the “change in root length” value (Corn plants; [7]) was 65.3, the “change in root length, relative (in brackets)” value (Corn plants; [7]) was 3.6 and the “Plant Biomass” value (Corn plants; [8]) was 74.1 a g. The “Root Length” value (Corn plants; [8]) was 1855.9 a cm, the “Basal Diameter” value [2, 9] was 3.07 a mm and the “Leaf (count)” value [2, 9] was 8.66 a count. The “Plant Height” value [2, 9] was 8.67 a in, the “increase in leaf count” value [2, 10] was 1 and the “increase in leaf count, percent” value [2, 10] was 13.1%. The “increase in plant height” value [2, 10] was 1.67 in, the “increase in plant height, percent” value [2, 10] was 23.9% and the “Fresh Onion Mass” value (Onions; applications every 14 days, total of 4 applications) was 227 a g. The “size and uniformity of onions (FIG. 2, in words)” value (Onions; treated over untreated onions) was “increase in size and uniformity”, the “increase in biomass of the onions” value (Onions; [11]) was 75.0 g and the “increase in biomass of the onions, percent” value (Onions; [11]) was 49.3%. For the same compound, the “Plant Biomass” value (Mustard plants; [12]) was 22.19 a g, the “Root Length” value (Mustard plants; [12]) was 545.5 a cm and the “Root Tips (count)” value (Mustard plants; [12]) was 3178.7 a count. For the same compound, the “increase in plant biomass” value (Mustard plants; above the untreated check) was 2.8 g, the “increase in plant biomass, percent” value (Mustard plants; above the untreated check) was 14.5% and the “increase in root length” value (Mustard plants; above the untreated check) was 120.9 cm. For the same compound, the “increase in root length, percent” value (Mustard plants; above the untreated check) was 28.5%, the “increase in root tips” value (Mustard plants; above the untreated check) was 887 and the “increase in root tips, percent” value (Mustard plants; above the untreated check) was 38.7%. For the same compound, the increase in biomass (Soybean plants; [13]) was 2.2 g, the “increase in biomass, percent” value (Soybean plants; [13]) was 20.1% and the “increase in root length” value (Soybean plants; [13]) was 254.6 cm. For the same compound, the “increase in root length, percent” value (Soybean plants; [13]) was 13.2%, the “increase in root tips” value (Soybean plants; [13]) was 1345.1 and the “increase in root tips, percent” value (Soybean plants; [13]) was 36.1%. The “Plant Biomass” value (Soybean plants; [14]) was 13.02 a g, the “Root Length” value (Soybean plants; [14]) was 2185.8 a cm and the “Root Tips (count)” value (Soybean plants; [14]) was 5075.9 a count.
